One data set has as its system HaCaT. The experiment in a line: HaCaT assay, a psoriasis model. The format is cell-based. To be noted: for HaCaT, rel.: geometric mean of the ratios relative to 1α,25(OH)2D3, higher = more potent; for HaCaT, -log IC50: HaCaT cells. The source says: (§1) The present invention provides a hitherto undisclosed series of vitamin D analogues which is characterised by the presence of an additional hydroxy group or halogen atom in the 26 position of the side chain.

Data set [1] can be described thus: in vitro model of metabolic stability, rat liver homogenate S-9. Type of data set: in vitro ADME. The source says:
Another problem using vitamin D analogues in the non-topical treatment of hyperproliferative diseases, such as cancer, is metabolic stability in vivo. This stability has to be above a certain minimum level, for a compound to be used in practical therapy.

The nature of data set [2]: calcemic activity, rat calciuric model (urinary excretion of calcium).
From the text: as §1

Data set [3] deals with MCF-7 mammary cancer cell. The experiment in a line: MCF-7 mammary cancer cell assay (antiproliferative activity). Type of data set: cell-based. To be noted: for MCF-7, -log IC50: MCF-7 mammary cancer cells; for MCF-7, rel.: geometric mean of the ratios relative to 1α,25(OH)2D3, higher = more potent.
From the text: as §1

Another data set has as its system U937 leukemia cell. The experiment in a line: U937 leukemia cell assay (antiproliferative activity). Particulars: for U937, -log IC50: U937 leukemia cells; for U937, rel.: geometric mean of the ratios relative to 1α,25(OH)2D3, higher = more potent. The format is cell-based.
From the text: as §1

The conditions of data set [4]: relative to 1α,25(OH)2D3; cited from earlier work.
Data set [5] concerns different types of cancer cells. To be noted: brain glial tumor, MCF-7, NB4, HL-60, acute myeloid leukemia, MG-63 cells; cited from earlier work.
Another data set has as its system mammary tumours. Particulars: rats with mammary tumours, 1 μg/kg body weight for 28 days; cited from earlier work.
The next data set deals with human carcinoma cells. Particulars: in vitro; cited from earlier work.
For data set [6] the following is noted: chronically uraemic rats with secondary hyperparathyroidism; cited from earlier work.

Like-named read-outs stand apart in the source and are kept apart here.

As to `C=C1/C(=C\C=C2/CCC[C@]3(C)[C@@H]([C@H](C)CCCC(C)(C)O)CC[C@@H]23)C[C@@H](O)C[C@@H]1O` [1α,25(OH)2D3], the “HaCaT, rel.” value in the data set on HaCaT was 1.0. In data set [1] (rat liver homogenate S-9), this compound returned a T½ of 2.5 h. Also, the “Calcem.; in vivo” value in data set [2] (rat, in vivo) is reported as 1.0. Besides, in data set [3], the “MCF-7, -log IC50” value was 7.7 ± 0.3 and the “MCF-7, rel.” value is recorded as 1.0. In the data set on U937 leukemia cell, the “U937, -log IC50” value is reported as 7.5 ± 0.3 and the “U937, rel.” value amounted to 1.0.
As for `C=C1C(=CC=C2CCCC3(C)C2CCC3C(C)C(C#CCC(O)(CC)CC)OCC)CC(O)CC1O` (stereo not drawn) [CB1093, 20-epi-22-ethoxy-23-yne-24a, 26a, 27a, trishomo-1α,25(OH)2D3 vitamin D3], in the data set on HaCaT, the “HaCaT, -log IC50” value came to 8.7 ± 0.9 and the “HaCaT, rel.” value stood at 18. The “calcemic vitamin D activity, urinary excretion of calcium in rats, % of that of 1α,25(OH)2D3” value in data set [4] is recorded as 27%. For the same compound, in [1] (rat liver homogenate S-9, 1 hour incubation), the “S-9, metab. in vitr.: fraction left after 1 hour incubation” value (“S-9, metab. in vitr.: fraction left” for short) is given as 0.02. Further, the “stability in in vitro model of metabolic stability” value in data set [1] (rat liver homogenate S-9, compared to seocalcitol and 1α,25(OH)2D3) is “quite low”. Also, in [2] (rat calciuric model, geometric mean of the ratios relative to 1α,25(OH)2D3), the “Calcem.; in vivo” value is given as 0.27. In data set [5], the “inhibitory activity on proliferation of cancer cells” value was “potent inhibitory activity”. In the data set on mammary tumours, the “reduction of the initial tumour volume” value is given as 49% and the serum calcium concentration result is on record as “slight increase”. The “inhibiting the invasiveness of human carcinoma cells” value in the data set with human carcinoma cells was “potent activity”. Also, in data set [6], the “plasma PTH level” value is “significantly decreased” and the plasma phosphate level entry is recorded as “significantly decreased”. In data set [3], the “MCF-7, -log IC50” value turned out to be 10.2 ± 0.3 and the “MCF-7, rel.” value is recorded as 311. Further, in the data set with U937 leukemia cell, the “U937, -log IC50” value is on record as 9.5 ± 0.1 and the “U937, rel.” value stood at 74.
Turning to `C=C1/C(=C\C=C2/CCC[C@]3(C)[C@@H]([C@H](C)/C=C/C=C/C(O)(CC)CC)CC[C@@H]23)C[C@@H](O)C[C@@H]1O` [seocalcitol], the half-life in data set [1] (rat) is 78 min.
For the compound `C=C1C(=CC=C2CCCC3(C)C2CCC3C(C)C(C#CCC(O)(CC)C(C)O)OCC)CC(O)CC1O` [Compound 103, 1(S),3(R)-Dihydroxy-20(R)-(5(S),6(S)-dihydroxy-1(S)-ethoxy-5-ethyl-2-heptyn-1-yl)-9,10-secopregna-5(Z),7(E),10(19)-triene], in the data set with HaCaT, the “HaCaT, -log IC50” value turned out to be 9.0 ± 0.3 and the “HaCaT, rel.” value amounted to 38. Also, the “S-9, metab. in vitr.: fraction left” value in [1] was 0.43. Moreover, the “Calcem.; in vivo” value in data set [2] (rat, in vivo) was 0.11. Moreover, in [3], the “MCF-7, -log IC50” value is reported as 9.9 ± 0.1 and the “MCF-7, rel.” value is 153. Also, in the data set on U937 leukemia cell, the “U937, -log IC50” value was found to be 9.0 ± 0.2 and the “U937, rel.” value was 36.
On to `C=C1/C(=C\C=C2/CCC[C@]3(C)[C@@H]([C@@H](C)[C@@H](C#CC[C@@](O)(CC)[C@@H](C)O)OCC)CC[C@@H]23)C[C@@H](O)C[C@@H]1O` [Compound 108, 1(S),3(R)-Dihydroxy-20(R)-(5(S),6(R)-dihydroxy-1(S)-ethoxy-5-ethyl-2-heptyn-1-yl)-9,10-secopregna-5(Z),7(E),10(19)-triene], for which, in the data set on HaCaT, the “HaCaT, -log IC50” value is given as 8.8 ± 0.2 and the “HaCaT, rel.” value amounted to 30. Moreover, the “S-9, metab. in vitr.: fraction left” value in data set [1] was found to be 0.29. For the same compound, in data set [2] (rat, in vivo), the “Calcem.; in vivo” value is listed as 0.6. In addition, in data set [3], the “MCF-7, -log IC50” value is 9.8 ± 0.2 and the “MCF-7, rel.” value came to 89. In addition, in the data set with U937 leukemia cell, the “U937, -log IC50” value was 8.9 ± 0.2 and the “U937, rel.” value was 49.

In general, half-life refers to how long it takes for the measured level to halve.

The values are drawn from US6573255B1, “Vitamin D analogues” (Leo Pharmaceutical Products Ltd., A/S, priority 1999, dated 2003).
